What was measured:
AADC [1] = biological target: T1, AADC (Sus scrofa, UniProt P80041); experiment: In vitro AADC inhibition: time of 90% inactivation (14CO2 trapping, DL-[1-14C]-dopa substrate); format: biochemical, hog; parameters: key to RATING: ++++: The relative activities of the compounds are rated by the given number of "plus" signs; +++: The relative activities of the compounds are rated by the given number of "plus" signs; 0-+: The relative activities of the compounds are rated by the given number of "plus" signs; conditions: for TIME OF 90% INACTIVATION: pH 7.4, 37° C.; for RATING: relative activity
T1 sequence (P80041 1-486): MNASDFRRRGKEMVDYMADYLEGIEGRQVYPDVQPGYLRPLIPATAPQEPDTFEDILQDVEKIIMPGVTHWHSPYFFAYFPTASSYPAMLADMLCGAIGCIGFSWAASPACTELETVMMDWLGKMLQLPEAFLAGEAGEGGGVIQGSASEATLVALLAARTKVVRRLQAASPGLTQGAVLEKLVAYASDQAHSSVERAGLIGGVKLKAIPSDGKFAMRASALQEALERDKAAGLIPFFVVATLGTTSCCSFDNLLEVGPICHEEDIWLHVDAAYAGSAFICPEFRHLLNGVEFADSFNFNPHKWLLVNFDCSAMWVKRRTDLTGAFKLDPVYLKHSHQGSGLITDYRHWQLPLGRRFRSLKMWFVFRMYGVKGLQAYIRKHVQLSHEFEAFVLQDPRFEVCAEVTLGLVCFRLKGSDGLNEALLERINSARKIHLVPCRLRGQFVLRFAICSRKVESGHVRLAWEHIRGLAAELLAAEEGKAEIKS
Procedure: AADC can be purified from hog kidney by the general method of J. Christenson et al. Archs. Biochem. Biophys., 141, 356 (1970) and G. Lancaster et al., Can. J. Biochem., 50, 791 (1972), and the specific activity of the enzyme is determined by the ^14 CO2 trapping method using DL-[1-^14 C]-dopa as the substrate (see Christenson et al.). One unit of activity is defined as the total amount of enzyme which produces 1 n mol of CO2 per minute, with DL-[1-^14 C]-dopa as substrate.
To 100 μl of 50 mM-phosphate buffer pH 7.4 containing 100 mM-mercapto-ethanol are added 5 μl of an aqueous solution containing the test compound at the desired concentration and 50 μl of an aqueous solution containing 2 units of AADC. The mixture is incubated at 37° C. and 20 μl aliquots are removed at various times. The AADC activity remaining in each aliquot is measured by the CO2 trapping method of Christenson.
The relative activities of the compounds are rated by the given number of "plus" signs.

AADC [2] = experiment: Ex vivo AADC activity in organs of mice after repeated i.p. doses (Table II); parameters: species or system mice (Swiss Albino); conditions: three days, 12 h after 6th dose, vs control
Procedure: (§1) The test animals (e.g. mice or rats) are given the test compound in a suitable vehicle, either orally or by injection, each day over the period of time desired. The animals are kept on a constant time cycle, and body weights are measured daily. The animals are sacrificed by decapitation 12 to 24 hours after receiving the last dose of the test compound. Control animals receive the vehicle alone.
(§2) Immediately after death, the organs (brain, heart, and kidney) are removed and homogenized either in 50 ml phosphate buffer pH 6.8 for AADC determination or in ice-cold 0.4 M HClO4 containing 0.05% (w/v) EDTA and 0.1% (w/v) sodium bisulfite for catecholamine determination. AADC activity is determined by the ^14 CO2 trapping method of J. Christenson, supra (see Example 14) using DL-[1-^14 C]-dopa as the substrate. Catecholamines are determined by centrifuging the homogenate, adding the supernatant to alumina buffered to pH 8.0-8.4 to adsorb the catecholamines, re-extracting the catecholamines from the alumina with 0.2 M HClO4 and determining the catecholamines in the extracts using known procedures, such as by reversed-phase ion-pair HPLC with electrochemical detection.
(§3) Table II, shown below, sets forth the results obtained by testing particular compounds of Formula I in the above-described procedure in mice (Swiss Albino) after i.p. administration of the compound twice daily for three days: […]

[3] = test system: catecholamine content (norepinephrine, dopamine); experiment: Catecholamine content in organs of mice after repeated i.p. doses (Table II); format: in vivo, mice (Swiss Albino); conditions: three days, 12 h after 6th dose, vs control
Procedure: as §1, §2, §3

[4] = Deaths in mice after repeated i.p. doses (Table II footnotes); format: in vivo, mice (Swiss Albino); conditions: 100 mg/kg i.p. twice daily, three days; number dead of animals
Procedure: as §1, §3

[5] = test system: catecholamine content (norepinephrine, dopamine); experiment: Catecholamine content in organs of rats after oral administration once daily for 15 days (Table III); format: in vivo, rats (Sprague-Dawley); conditions: 24 h after 15th dose, vs control; for % CHANGE Brain Dopamine: * not significant
Procedure: as §1, §2
Table III gives the results obtained by testing particular compounds of Formula I in rats (Sprague-Dawley) after oral administration of the test compound once daily for 15 days. AADC activity was not determined.

[6] = 10 mg/kg i.p. twice daily, * not significant
[7] = 10 mg/kg i.p. twice daily, * not significant (-25*, -7*)
[8] = 10 mg/kg i.p. twice daily, * not significant (-25*, -9*)
[9] = 100 mg/kg i.p. twice daily, * not significant (-35*)
[10] = 10 mg/kg oral once daily 15 days
[11] = 20 mg/kg oral once daily 15 days
[12] = 30 mg/kg oral once daily 15 days

Row | TIME OF 90% INACTIVATION (AADC [1]; CONC. 10 μM) [min] | RATING (AADC [1]; CONC. 10 μM) | Structure (SMILES) | % CHANGE AADC Brain (AADC [2]; 10 mg/kg i.p. twice daily) [%] | % CHANGE AADC Kidney (AADC [2]; 10 mg/kg i.p. twice daily) [%] | % CHANGE AADC Brain (AADC [2]; 100 mg/kg i.p. twice daily) [%] | % CHANGE AADC Kidney (AADC [2]; 100 mg/kg i.p. twice daily) [%] | % CHANGE NOREPINEPHRINE Brain [3, 6] [%] | % CHANGE NOREPINEPHRINE Heart [3, 7] [%] | % CHANGE DOPAMINE Brain [3, 8] [%] | % CHANGE NOREPINEPHRINE Brain ([3]; 100 mg/kg i.p. twice daily) [%] | % CHANGE NOREPINEPHRINE Heart ([3]; 100 mg/kg i.p. twice daily) [%] | % CHANGE DOPAMINE Brain [3, 9] [%] | % CHANGE Brain Norepinephrine [5, 10] [%] | % CHANGE Heart Norepinephrine [5, 10] [%] | % CHANGE Brain Dopamine [5, 10] [%] | % CHANGE Brain Norepinephrine [5, 11] [%] | % CHANGE Heart Norepinephrine [5, 11] [%] | % CHANGE Brain Dopamine [5, 11] | % CHANGE Brain Norepinephrine [5, 12] [%] | % CHANGE Heart Norepinephrine [5, 12] [%] | also measured
1 |  |  | Cc1cccc(CC(N)(CF)C(=O)O)c1O (stereo not shown) [2-OH3-methyl phenyl, 2-Amino-2-fluoromethyl-3-(2-hydroxy-3-methylphenyl)propionic acid] | -52 | -84 | -94 | -98 | -27 | -41 | -20 | -47 | -68 | -24 |  |  |  |  |  |  |  |  | TIME OF 90% INACTIVATION (AADC [1]; CONC. 100 μM): 1 min; RATING (AADC [1]; CONC. 100 μM): +++; dead [4]: 1/5
2 | 3 | ++++ | NC(CF)(Cc1cc(O)ccc1O)C(=O)O (stereo not shown) [2,5-diOH-phenyl, 2-Amino-2-fluoromethyl-3-(2,5-dihydroxyphenyl)propionic acid] | -58 | -78 | -99 | -87 | 0 | -25 | 0 | -90 | -76 | 90 | -16 | -31 | -1 | -32 | -38 | -2% | -37 | -53 | % CHANGE Brain Dopamine [5, 12]: -5%
3 | 1 to 2 | ++++ | NC(CF)(Cc1cccc(O)c1O)C(=O)O (stereo not shown) [2,3-diOH-phenyl, 2-Amino-2-fluoromethyl-3-(2,3-dihydroxyphenyl)propionic acid] | -73 | -90 | -99 | -90 | -33 | -33 | -25 | -90 | -90 | -93 | -11 | -38 | 0 | -17 | -48 | +3% | -27 | -79 | % CHANGE Brain Dopamine [5, 12]: -10%

Reference: patent publication US4342780A, “Method of depleting endogenous monoamines” (Merrell-Toraude et Cie, priority 1981, dated 1982)
